Test results as given in PubChem BioAssay AID192 (DTP/NCI, 2004).
“And” between values parts separate entries of the source, which are not always exact repeats. Equal values may be shown once. Inconclusive results and toxic doses are left out.

Test system: BDF1 mice, B16 melanoma ip, median survival T/C
Test: NCI In Vivo Anticancer Drug Screen. Data for tumor model B16 Melanoma (intraperitoneal) in B6D2F1 (BDF1) mice
Conditions: endpoint: median survival time, higher = longer survival
In short: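 Values are ratios of treated (T) to vehicle-control (C) measurements of survival or tumor size in tumor-bearing mice.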

[1] = dose: 25.0 mg/kg/injection, schedule: Q04DX003 (ip), vehicle: Klucel (hydroxypropylcellulose) (HPC)
[2] = dose: 50.0 mg/kg/injection, schedule: Q04DX003 (ip), vehicle: Klucel (hydroxypropylcellulose) (HPC)
[3] = dose: 100.0 mg/kg/injection, schedule: Q04DX003 (ip), vehicle: Klucel (hydroxypropylcellulose) (HPC)
[4] = dose: 100.0 mg/kg/injection, schedule: Q01DX009 (ip), vehicle: Klucel (hydroxypropylcellulose) (HPC)
[5] = dose: 1.0 mg/kg/injection, schedule: Q01DX009 (ip), vehicle: saline
[6] = dose: 2.0 mg/kg/injection, schedule: Q01DX009 (ip), vehicle: saline
[7] = dose: 4.0 mg/kg/injection, schedule: Q01DX009 (ip), vehicle: saline
[8] = dose: 50.0 mg/kg/injection, schedule: Q01DX009 (ip), vehicle: saline with Tween-80
[9] = dose: 200.0 mg/kg/injection, schedule: Q04DX003 (ip), vehicle: Klucel (hydroxypropylcellulose) (HPC)
[10] = dose: 400.0 mg/kg/injection, schedule: Q04DX003 (ip), vehicle: Klucel (hydroxypropylcellulose) (HPC)
[11] = dose: 12.5 mg/kg/injection, schedule: Q01DX009 (ip), vehicle: saline with Tween-80
[12] = dose: 25.0 mg/kg/injection, schedule: Q01DX009 (ip), vehicle: saline with Tween-80

COCC1OC(OC2C3=C(C(C)C)CCC3(C)/C=C3\C(CCC3(O)COC)C(C)C2O)C(O)C2OC3OC12OC3(C)C1CO1 (stereo not given)
T/C (dose: 1.5 mg/kg/injection, schedule: Q01DX009 (ip), vehicle: Klucel (hydroxypropylcellulose) (HPC)): 93 % of control | T/C (dose: 3.0 mg/kg/injection, schedule: Q01DX009 (ip), vehicle: Klucel (hydroxypropylcellulose) (HPC)): 89 % of control | T/C (dose: 6.0 mg/kg/injection, schedule: Q01DX009 (ip), vehicle: Klucel (hydroxypropylcellulose) (HPC)): 98 % of control | T/C (dose: 12.0 mg/kg/injection, schedule: Q01DX009 (ip), vehicle: Klucel (hydroxypropylcellulose) (HPC)): 91 % of control | T/C (dose: 24.0 mg/kg/injection, schedule: Q01DX009 (ip), vehicle: Klucel (hydroxypropylcellulose) (HPC)): 105 % of control

O=C1c2ccccc2C(=O)c2c(NCCCCCO)ccc(NCCCCCO)c21
T/C (dose: 8.0 mg/kg/injection, schedule: Q01DX009 (ip), vehicle: Klucel (hydroxypropylcellulose) (HPC)): 99 % of control | T/C (dose: 16.0 mg/kg/injection, schedule: Q01DX009 (ip), vehicle: Klucel (hydroxypropylcellulose) (HPC)): 95 % of control | T/C (dose: 32.0 mg/kg/injection, schedule: Q01DX009 (ip), vehicle: Klucel (hydroxypropylcellulose) (HPC)): 91 % of control

CC(=O)OC1=C(c2ccccc2)C(=O)c2ccccc21
T/C [1]: 86 % of control | T/C [2]: 86 % of control | T/C [3]: 86 % of control

CCN(C(=O)Nc1ccccc1OC)c1ccccc1
T/C [4]: 89 % of control

O=C1C(NCC(O)CO)=C(N2CC2)C(=O)C(NCC(O)CO)=C1N1CC1 (stereo not given)
T/C [5]: 95 % of control | T/C [6]: 121 % of control | T/C [7]: 123 % of control

CN(C)c1c(-c2ccccc2)cc(-c2ccccc2)[nH]c1=O
T/C [8]: 92 % of control | T/C (dose: 100.0 mg/kg/injection, schedule: Q01DX009 (ip), vehicle: saline with Tween-80): 86 % of control

c1ccc(OP(Oc2ccccc2)c2ccccc2)cc1
T/C (dose: 50.0 mg/kg/injection, schedule: Q01DX009 (ip), vehicle: acetone): 113 % of control | T/C (dose: 100.0 mg/kg/injection, schedule: Q01DX009 (ip), vehicle: acetone): 100 % of control | T/C (dose: 200.0 mg/kg/injection, schedule: Q01DX009 (ip), vehicle: acetone): 100 % of control

Cc1cc(C(=O)NNC(C)Cc2ccccc2)no1 (stereo not given)
T/C (dose: 4.6 mg/kg/injection, schedule: Q01DX009 (ip), vehicle: saline): 95 % of control | T/C (dose: 9.3 mg/kg/injection, schedule: Q01DX009 (ip), vehicle: saline): 100 % of control | T/C (dose: 18.75 mg/kg/injection, schedule: Q01DX009 (ip), vehicle: saline): 102 % of control | T/C (dose: 37.5 mg/kg/injection, schedule: Q01DX009 (ip), vehicle: saline): 120 % of control

C[CH2][Sn]([CH2]C)([CH2]C)[O]C(=O)CO
T/C (dose: 1.56 mg/kg/injection, schedule: Q01DX009 (ip), vehicle: saline): 97 % of control | T/C (dose: 3.13 mg/kg/injection, schedule: Q01DX009 (ip), vehicle: saline): 87 % of control

NC(N)=Nc1nc2ccccc2s1
T/C [1]: 105 % of control | T/C [2]: 97 % of control | T/C [3]: 97 % of control

COC1CC(C)C(OC)c2cc(O)cc(c2O)NC(=O)/C(C)=C/C=C\C(C)C(OC(N)=O)/C(C)=C\C(C)C1OC (stereo not given)
T/C (dose: 2.5 mg/kg/injection, schedule: Q01DX009 (ip), vehicle: Klucel (hydroxypropylcellulose) (HPC)): 176 % of control and 187 % of control | T/C (dose: 5.0 mg/kg/injection, schedule: Q01DX009 (ip), vehicle: Klucel (hydroxypropylcellulose) (HPC)): 177 % of control and 208 % of control | T/C (dose: 5.0 mg/kg/injection, schedule: Q01DX009 (ip), vehicle: saline + alcohol): 242 % of control

O=C(Nc1ccccc1Cl)Oc1ccc(-c2ccccc2)cc1Br
T/C [3]: 100 % of control | T/C [9]: 103 % of control | T/C [10]: 93 % of control

O=C(C=C(C(F)(F)Cl)C(F)(F)Cl)c1cccs1
T/C (dose: 0.31 mg/kg/injection, schedule: Q01DX009 (ip), vehicle: saline): 97 % of control | T/C (dose: 0.62 mg/kg/injection, schedule: Q01DX009 (ip), vehicle: saline): 92 % of control | T/C (dose: 2.5 mg/kg/injection, schedule: Q04DX003 (ip), vehicle: saline): 97 % of control | T/C (dose: 5.0 mg/kg/injection, schedule: Q04DX003 (ip), vehicle: saline): 105 % of control | T/C (dose: 10.0 mg/kg/injection, schedule: Q04DX003 (ip), vehicle: saline): 90 % of control

Nc1ncnc2c1c(C(=O)O)cn2C1OC(CO)C(O)C1O (stereo not given)
T/C [11]: 91 % of control | T/C [12]: 93 % of control | T/C [8]: 96 % of control

NC(=O)c1ncn2c(=O)n(CCCl)nnc12
T/C (dose: 6.25 mg/kg/injection, schedule: Q01DX009 (ip), vehicle: saline): 158 % of control | T/C (dose: 12.5 mg/kg/injection, schedule: Q01DX009 (ip), vehicle: saline): 216 % of control | T/C (dose: 25.0 mg/kg/injection, schedule: Q01DX009 (ip), vehicle: saline): 207 % of control | T/C (dose: 50.0 mg/kg/injection, schedule: Q01DX009 (ip), vehicle: saline): 96 % of control

c1ccc2cc3c(cc2c1)Cn1c-3nc2ccccc21
T/C (dose: 178.0 mg/kg/injection, schedule: Q01DX009 (ip), vehicle: saline with Tween-80): 101 % of control | T/C (dose: 200.0 mg/kg/injection, schedule: Q01DX009 (ip), vehicle: saline): 124 % of control | T/C (dose: 266.0 mg/kg/injection, schedule: Q01DX009 (ip), vehicle: saline with Tween-80): 100 % of control | T/C (dose: 400.0 mg/kg/injection, schedule: Q01DX009 (ip), vehicle: saline with Tween-80): 90 % of control | T/C (dose: 400.0 mg/kg/injection, schedule: Q01DX009 (ip), vehicle: saline): 110 % of control

O=C(Nc1ccc(C(=O)O)cc1)Oc1ccc(N(CCCl)CCCl)cc1
T/C (dose: 3.13 mg/kg/injection, schedule: Q04DX003 (ip), vehicle: saline with Tween-80): 109 % of control | T/C (dose: 6.25 mg/kg/injection, schedule: Q04DX003 (ip), vehicle: saline with Tween-80): 109 % of control | T/C [11]: 165 % of control | T/C (dose: 12.5 mg/kg/injection, schedule: Q04DX003 (ip), vehicle: saline with Tween-80): 123 % of control | T/C (dose: 25.0 mg/kg/injection, schedule: Q01DX009 (ip), vehicle: Klucel (hydroxypropylcellulose) (HPC)): 154 % of control | T/C [12]: 110 % of control | T/C (dose: 25.0 mg/kg/injection, schedule: Q04DX003 (ip), vehicle: saline with Tween-80): 151 % of control | T/C (dose: 50.0 mg/kg/injection, schedule: Q04DX003 (ip), vehicle: saline with Tween-80): 164 % of control | T/C (dose: 100.0 mg/kg/injection, schedule: Q04DX003 (ip), vehicle: saline with Tween-80): 205 % of control

CCCCNC1=C(N2CC2)C(=O)C(NCCCC)=C(N2CC2)C1=O
T/C (dose: 1.25 mg/kg/injection, schedule: Q01DX009 (ip), vehicle: saline): 113 % of control | T/C (dose: 2.5 mg/kg/injection, schedule: Q01DX009 (ip), vehicle: saline): 112 % of control

O=C(CC(O)(C(F)(F)F)C(F)(F)F)c1cccc2ccccc12
T/C [3]: 90 % of control | T/C [9]: 95 % of control | T/C [10]: 102 % of control

CC(C)CCC(C)C1CCC2C3CC([N+](=O)[O-])=C4CC(OC(=O)c5ccccc5)CCC4(C)C3CCC12C (stereo not given)
T/C [4]: 105 % of control | T/C (dose: 200.0 mg/kg/injection, schedule: Q01DX009 (ip), vehicle: Klucel (hydroxypropylcellulose) (HPC)): 110 % of control | T/C (dose: 400.0 mg/kg/injection, schedule: Q01DX009 (ip), vehicle: Klucel (hydroxypropylcellulose) (HPC)): 105 % of control

CCCCCCCCCCCCCCCC[N+](C)(C)C
T/C (dose: 0.5 mg/kg/injection, schedule: Q04DX003 (ip), vehicle: saline): 95 % of control | T/C [5]: 93 % of control | T/C (dose: 1.0 mg/kg/injection, schedule: Q04DX003 (ip), vehicle: saline): 95 % of control | T/C (dose: 1.25 mg/kg/injection, schedule: Q01DX009 (ip), vehicle: saline with Tween-80): 102 % of control | T/C [6]: 93 % of control | T/C (dose: 2.0 mg/kg/injection, schedule: Q04DX003 (ip), vehicle: saline): 95 % of control | T/C (dose: 2.5 mg/kg/injection, schedule: Q01DX009 (ip), vehicle: saline with Tween-80): 107 % of control | T/C (dose: 2.75 mg/kg/injection, schedule: Q01DX009 (ip), vehicle: saline): 93 % of control | T/C [7]: 91 % of control | T/C (dose: 5.0 mg/kg/injection, schedule: Q01DX009 (ip), vehicle: saline with Tween-80): 91 % of control | T/C (dose: 5.5 mg/kg/injection, schedule: Q01DX009 (ip), vehicle: saline): 93 % of control
